Measurements from patent US9445998B2, “Pharmaceutical dosage forms comprising a low-solubility drug and a polymer” (Bend Research, Inc., priority 2004, dated 2016).
In brackets after ≈: the same amount, converted by molar mass. Structures can show the parent of a compound that is named as a salt. Where two headings read alike, the source gives them in different places.

Legend:
[1] = for solubility in phosphate buffered saline: pH 6.5; for maximum dissolved drug concentration: pH 6.5 PBS solution
Excerpt: It is known that some drugs may crystallize into one of several different crystal forms. Such crystal forms are often referred to as “polymorphs.” As used herein, “a high-energy crystalline form” means that the drug is in a crystal form which provides solubility improvement as described below.
By “amorphous” is meant simply that the drug is in a non-crystalline state. As used herein, the term “a major portion” of means that at least 60 wt % of the drug in the composition is in the amorphous form, rather than the crystalline form. […] Amounts of crystalline drug may be measured by Powder X-Ray Diffraction (PXRD), Scanning Electron Microscope (SEM) analysis, differential scanning calorimetry (DSC), or any other standard quantitative measurement.
An appropriate PBS solution is an aqueous solution comprising 20 mM Na2HPO4, 47 mM KH2PO4, 87 mM NaCl, and 0.2 mM KCl, adjusted to pH 6.5 with NaOH. An appropriate MFD solution is the same PBS solution wherein there is also present 7.3 mM sodium taurocholic acid and 1.4 mM of 1-palmitoyl-2-oleyl-sn-glycero-3-phosphocholine. Water is a preferred dissolution media for some fast precipitating salts. […] In such cases it may be preferred to use an unbuffered test medium such as distilled water as the dissolution medium.

[2] = format: physicochemical; conditions: not told
Procedure: An Accurel® PP 1E microporous polypropylene membrane was obtained from Membrana GmbH (Wuppertal, Germany). The membrane was washed in isopropyl alcohol and rinsed in methanol in a sonicating bath for 1 minute at ambient temperature, and then allowed to air dry at ambient temperature. The feed side of the membrane was then plasma-treated to render it hydrophilic by placing a sample of the membrane in a plasma chamber. The atmosphere of the plasma chamber was saturated with water vapor at a pressure of 550 mtorr. A plasma was then generated using radio frequency (RF) power inductively coupled into the chamber via annular electrodes at a power setting of 50 watts for 45 seconds. The contact angle of a drop of water placed on the surface of the plasma-treated membrane was less than about 40°. The contact angle of a drop of water placed on the permeate side of the same membrane was greater than about 110°.
A permeate reservoir was formed by gluing a sample of the plasma-treated membrane to a glass tube having an inside diameter of about 1 inch (2.54 cm) using an epoxy-based glue (LOCTITE® E-30CL HYSOL® from Henkel Loctite Corp, Rocky Hill, Conn.). The feed-side of the membrane was oriented so that it was on the outside of the permeate reservoir, while the permeate-side of the membrane was oriented so that it was on the inside of the reservoir. The effective membrane area of the membrane on the permeate reservoir was about 4.9 cm^2. The permeate reservoir was placed into a glass feed reservoir. The feed reservoir was equipped with a magnetic stir bar and the reservoir was placed on a stir plate and the stir rate was set to 100 rpm during the test. The apparatus was placed into a chamber maintained at 37° C. for the duration of the test. Further details of the test apparatus and protocols are presented in co-pending U.S. Patent Application Ser. No. 60/557,897, entitled “Method and Device for Evaluation of Pharmaceutical Compositions,” filed Mar. 30, 2004, incorporated herein by reference.
To form the feed solution, a 1.429 mg (0.5 mgA) sample of CC-1 was weighed into a feed reservoir. (As used herein, “mgA” is milligrams of active drug, reported as the free base, non-salt form, non-hydrate drug molecule.) To this was added 5 mL of the MFD solution previously described, consisting of PBS solution containing 7.3 mM sodium taurocholic acid and 1.4 mM of 1-palmitoyl-2-oleyl-sn-glycero-3-phosphocholine (0.5% NaTC/POPC). […] The feed solution was mixed using a vortex mixer for 1 minute. Before the membrane contacted the feed solution, 5 mL of 60 wt % decanol in decane was placed into the permeate reservoir. Time zero in the test was when the membrane was placed in contact with the feed solution. A […] aliquot of the permeate solution was collected at the times indicated. Samples were then diluted in […] IPA and analyzed using HPLC.
The maximum flux of drug across the membrane (in units of μgA/cm^2-min) was determined by performing a least-squares fit to the data in Table 4 from 0 to 60 minutes to obtain the slope (CC-1: 0.26 μgA/mL-min; Control 1A: 0.13 μgA/mL-min; Control 1B: 0.07 μgA/mL-min), multiplying the slope by the permeate volume (5 mL), and dividing by the membrane area (4.9 cm^2).

Solubility in water = format: physicochemical; conditions: expressed as the free base, hydrochloride monohydrate
Excerpt: An example of a drug having a crystalline highly soluble salt form is ziprasidone. Ziprasidone hydrochloride monohydrate has a solubility of about 10 μgA/mL (expressed as the free base) in water, whereas the free base form has a solubility of less than about 0.2 μgA/mL under the same conditions. Thus, crystalline ziprasidone hydrochloride is a solubility-improved form relative to the crystalline free base form of ziprasidone.

[3] = Microcentrifuge dissolution test in MFD solution; format: physicochemical; design: AUC: concentration or dose not given beside the values; conditions: for Dissolved Ziprasidone Concentration / AUC: MFD solution pH 6.5, 37° C.; for Dissolved Ziprasidone Concentration: 200 μgA/mL if all dissolved
Procedure: A microcentrifuge dissolution test was performed to verify that ziprasidone hydrochloride monohydrate is a solubility-improved form of ziprasidone. For this test, a sufficient amount of ziprasidone hydrochloride monohydrate was added to a microcentrifuge test tube so that the concentration of ziprasidone would have been 200 μgA/mL, if all of the ziprasidone had dissolved. The tests were run in duplicate. The tubes were placed in a 37° C. temperature-controlled chamber, and 1.8 mL MFD solution at pH 6.5 and 290 mOsm/kg was added to each respective tube. The samples were quickly mixed using a vortex mixer for about 60 seconds. The samples were centrifuged at 13,000 G at 37° C. for 1 minute prior to collecting a sample. The resulting supernatant solution was then sampled and diluted 1:5 (by volume) with methanol. Samples were analyzed by high-performance liquid chromatography (HPLC) at a UV absorbance of 315 nm using a Zorbax RxC8 Reliance column and a mobile phase consisting of 55% (50 mM potassium dihydrogen phosphate, pH 6.5)/45% acetonitrile. Drug concentration was calculated by comparing UV absorbance of samples to the absorbance of drug standards. The contents of each tube were mixed on the vortex mixer and allowed to stand undisturbed at 37° C. until the next sample was taken. Samples were collected at 4, 10, 20, 40, 90, and 1200 minutes following administration to the MFD solution.
A similar test was performed with the crystalline ziprasidone free base as a control, and a sufficient amount of material was added so that the concentration of compound would have been 200 μgA/mL, if all of the ziprasidone had dissolved.
The concentrations of ziprasidone obtained in these tests were used to determine the maximum dissolved concentration of ziprasidone (“MDC90”) and the area under the concentration-versus-time curve (“AUC90”) during the initial ninety minutes.

O=C(N[C@@H](Cc1ccccc1)[C@@H](O)C(=O)N1C[C@@H](O)[C@@H](O)C1)c1cc2cc(Cl)ccc2[nH]1 [A1, 5-chloro-1H-indole-2-carboxylic acid [(1S)-benzyl-3-((3R,4S)-dihydroxypyrrolidin-1-yl)-(2R)-hydroxy-3-oxpropyl]amide]
solubility in phosphate buffered saline [1]: about 480 μg/mL

O=C(N[C@@H](Cc1ccccc1)[C@@H](O)C(=O)N1C[C@@H](O)[C@@H](O)C1)c1cc2cc(Cl)ccc2[nH]1 [A2, 5-chloro-1H-indole-2-carboxylic acid [(1S)-benzyl-3-((3R,4S)-dihydroxypyrrolidin-1-yl)-(2R)-hydroxy-3-oxpropyl]amide]
solubility in phosphate buffered saline [1]: 87 µg/mL (≈ 190 µM) | maximum dissolved drug concentration [1]: 87 µg/mL

O=C1Cc2cc(CCN3CCN(c4nsc5ccccc45)CC3)c(Cl)cc2N1 [Control 1A, ziprasidone hydrochloride monohydrate]
Ziprasidone Concentration in Permeate ([2]; 0 min, 100 μgA/mL, pH 6.5): 0.5 μgA/mL | Maximum Flux of Ziprasidone ([2]; 100 μgA/mL, pH 6.5): 0.13 μgA/cm^2-min | Ziprasidone Concentration in Permeate ([2]; 20 min, 100 μgA/mL, pH 6.5): 3.8 μgA/mL | Ziprasidone Concentration in Permeate ([2]; 40 min, 100 μgA/mL, pH 6.5): 6.0 μgA/mL | Ziprasidone Concentration in Permeate ([2]; 60 min, 100 μgA/mL, pH 6.5): 8.4 μgA/mL | Ziprasidone Concentration in Permeate ([2]; 90 min, 100 μgA/mL, pH 6.5): 12.4 μgA/mL | Ziprasidone Concentration in Permeate ([2]; 120 min, 100 μgA/mL, pH 6.5): 15.3 μgA/mL | Ziprasidone Concentration in Permeate ([2]; 180 min, 100 μgA/mL, pH 6.5): 20.6 μgA/mL | Ziprasidone Concentration in Permeate ([2]; 240 min, 100 μgA/mL, pH 6.5): 25.2 μgA/mL | Ziprasidone Concentration in Permeate ([2]; 360 min, 100 μgA/mL, pH 6.5): 30.6 μgA/mL

O=C1Cc2cc(CCN3CCN(c4nsc5ccccc45)CC3)c(Cl)cc2N1 [Ziprasidone hydrochloride monohydrate, ziprasidone hydrochloride monohydrate]
solubility in water (Solubility in water): about 10 μgA/mL | AUC90 relative to that provided by the free base ([3]; MFD solution): 14 fold | MDC90 relative to that provided by the free base ([3]; MFD solution): 11 fold | Dissolved Ziprasidone Concentration ([3]; time 0 min): 0 μgA/mL | Dissolved Ziprasidone Concentration ([3]; time 4 min, hydrochloride monohydrate): 14 μgA/mL | Dissolved Ziprasidone Concentration ([3]; time 10 min, hydrochloride monohydrate): 15 μgA/mL | Dissolved Ziprasidone Concentration ([3]; time 20 min, hydrochloride monohydrate): 20 μgA/mL | Dissolved Ziprasidone Concentration ([3]; time 40 min, hydrochloride monohydrate): 22 μgA/mL | Dissolved Ziprasidone Concentration ([3]; time 90 min, hydrochloride monohydrate): 18 μgA/mL | Dissolved Ziprasidone Concentration ([3]; time 1200 min, hydrochloride monohydrate): 9 μgA/mL | AUC ([3]; up to time 0 min): 0 min-μgA/mL | AUC ([3]; up to time 4 min, hydrochloride monohydrate): 30 min-μgA/mL | AUC ([3]; up to time 10 min, hydrochloride monohydrate): 110 min-μgA/mL | AUC ([3]; up to time 20 min, hydrochloride monohydrate): 280 min-μgA/mL | AUC ([3]; up to time 40 min, hydrochloride monohydrate): 700 min-μgA/mL | AUC ([3]; up to time 90 min, hydrochloride monohydrate): 1,700 min-μgA/mL | AUC ([3]; up to time 1200 min, hydrochloride monohydrate): 16,400 min-μgA/mL | AUC90 ([3]; area under the concentration-versus-time curve during the initial ninety minutes, MFD solution, hydrochloride monohydrate): 1700 min·µgA/mL | MDC90 ([3]; maximum dissolved concentration during the initial ninety minutes, MFD solution, hydrochloride monohydrate): 22 µgA/mL | Maximum Flux of Ziprasidone [2]: 0.16 μgA/cm^2-min | Concentration (drug in the permeate solution) ([2]; 0 min, 100 μgA/mL, pH 6.5): 0.5 μgA/mL | Concentration (drug in the permeate solution) ([2]; 20 min, 100 μgA/mL, pH 6.5): 5.2 μgA/mL | Concentration (drug in the permeate solution) ([2]; 40 min, 100 μgA/mL, pH 6.5): 8.1 μgA/mL | Concentration (drug in the permeate solution) ([2]; 60 min, 100 μgA/mL, pH 6.5): 10.0 μgA/mL | Concentration (drug in the permeate solution) ([2]; 90 min, 100 μgA/mL, pH 6.5): 11.4 μgA/mL | Concentration (drug in the permeate solution) ([2]; 120 min, 100 μgA/mL, pH 6.5): 12.9 μgA/mL | Concentration (drug in the permeate solution) ([2]; 180 min, 100 μgA/mL, pH 6.5): 18.1 μgA/mL | Concentration (drug in the permeate solution) ([2]; 240 min, 100 μgA/mL, pH 6.5): 20.9 μgA/mL | Concentration (drug in the permeate solution) ([2]; 360 min, 100 μgA/mL, pH 6.5): 22.6 μgA/mL

O=C(N[C@@H](Cc1ccccc1)[C@@H](O)C(=O)N1C[C@@H](O)[C@@H](O)C1)c1cc2cc(Cl)ccc2[nH]1 [amorphous form, 5-chloro-1H-indole-2-carboxylic acid [(1S)-benzyl-3-((3R,4S)-dihydroxypyrrolidin-1-yl-)-(2R)-hydroxy-3-oxypropyl]amide]
maximum dissolved drug concentration [1]: about 600 μg/mL

ziprasidone tosylate [Control 3]
Maximum Flux of Ziprasidone [2]: 0.04 μg/cm^2-min
